Source: PubChem BioAssay AID1963978 (Molecular Pharmacology Branch, DTP, NCI, 2024)

Tested on: 616215-338-R-J1-PDC spheroids with HUVEC/MSC, viability
Assay: Anticancer human tumor 616215-338-R-J1-PDC patient-derived colon adenocarcinoma cell line growth inhibition [PI3K]
Details: for IC50: curve of first compound; for viability, T/C: stronger effect = lower value
Summary of the method: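 We assembled tumor spheroids that included a stromal compartment of HUVEC and MSCs, then exposed them to targeted agents alone and together with PI3K pathway inhibitors. Concentration series descended by half-log from clinically achievable Cmax levels. Viability served as the endpoint.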

[1] = second compound 0.00316 µM, first compound 0.0316 µM
[2] = second compound 0.00316 µM, first compound 0.1 µM
[3] = second compound 0.00316 µM, first compound 0.316 µM
[4] = second compound 0.00316 µM, first compound 1 µM
[5] = second compound 0.00316 µM, first compound 3.16 µM
[6] = second compound 0.00316 µM, first compound 10 µM
[7] = second compound 0.01 µM, first compound 0.0316 µM
[8] = second compound 0.01 µM, first compound 0.1 µM
[9] = second compound 0.01 µM, first compound 0.316 µM
[10] = second compound 0.01 µM, first compound 1 µM
[11] = second compound 0.01 µM, first compound 3.16 µM
[12] = second compound 0.01 µM, first compound 10 µM
[13] = second compound 0.0316 µM, first compound 0.0316 µM
[14] = second compound 0.0316 µM, first compound 0.1 µM
[15] = second compound 0.0316 µM, first compound 0.316 µM
[16] = second compound 0.0316 µM, first compound 1 µM
[17] = second compound 0.0316 µM, first compound 3.16 µM
[18] = second compound 0.0316 µM, first compound 10 µM
[19] = second compound 0.1 µM, first compound 0.0316 µM
[20] = second compound 0.1 µM, first compound 0.1 µM
[21] = second compound 0.1 µM, first compound 0.316 µM
[22] = second compound 0.1 µM, first compound 1 µM
[23] = second compound 0.1 µM, first compound 3.16 µM
[24] = second compound 0.1 µM, first compound 10 µM
[25] = second compound 0.316 µM, first compound 0.0316 µM
[26] = second compound 0.316 µM, first compound 0.1 µM
[27] = second compound 0.316 µM, first compound 0.316 µM
[28] = second compound 0.316 µM, first compound 1 µM
[29] = second compound 0.316 µM, first compound 3.16 µM
[30] = second compound 0.316 µM, first compound 10 µM
[31] = second compound 1 µM, first compound 0.0316 µM
[32] = second compound 1 µM, first compound 0.1 µM
[33] = second compound 1 µM, first compound 0.316 µM
[34] = second compound 1 µM, first compound 1 µM
[35] = second compound 1 µM, first compound 3.16 µM
[36] = second compound 1 µM, first compound 10 µM
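Note: spheroids exposed to agents for seven days before the viability read.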

C=CC(=O)N1CCN(c2nc(=O)n(-c3c(C)ccnc3C(C)C)c3nc(-c4c(O)cccc4F)c(F)cc23)C(C)C1 (stereo not given) + COc1c(OCCCN2CCOCC2)ccc2c3n(c(=NC(=O)c4cnc(N)nc4)nc12)CCN3
IC50 (second compound 0.00316 µM): > 10 µM
IC50 (second compound 0.01 µM): > 10 µM
IC50 (second compound 0.0316 µM): > 10 µM
IC50 (second compound 0.1 µM): > 10 µM
IC50 (second compound 0.316 µM): < 0.0316 µM
IC50 (second compound 1 µM): < 0.0316 µM
viability, T/C [1]: 90.8%
viability, T/C [2]: 87.9%
viability, T/C [3]: 92.2%
viability, T/C [4]: 96.6%
viability, T/C [5]: 95.2%
viability, T/C [6]: 80.1%
viability, T/C [7]: 110%
viability, T/C [8]: 92.2%
viability, T/C [9]: 97.8%
viability, T/C [10]: 101%
viability, T/C [11]: 111%
viability, T/C [12]: 78%
viability, T/C [13]: 106%
viability, T/C [14]: 85.9%
viability, T/C [15]: 99.5%
viability, T/C [16]: 110%
viability, T/C [17]: 87.8%
viability, T/C [18]: 76.2%
viability, T/C [19]: 91.7%
viability, T/C [20]: 96.8%
viability, T/C [21]: 93.4%
viability, T/C [22]: 98.9%
viability, T/C [23]: 90.2%
viability, T/C [24]: 71.7%
viability, T/C [25]: 52.7%
viability, T/C [26]: 36.7%
viability, T/C [27]: 46.1%
viability, T/C [28]: 47.1%
viability, T/C [29]: 47.1%
viability, T/C [30]: 36.6%
viability, T/C [31]: 23.4%
viability, T/C [32]: 23.2%
viability, T/C [33]: 29.8%
viability, T/C [34]: 24.4%
viability, T/C [35]: 25.4%
viability, T/C [36]: 21%

CC(C)NCC(C(=O)N1CCN(c2ncnc3c2C(C)CC3O)CC1)c1ccc(Cl)cc1 (stereo not given) + COc1c(OCCCN2CCOCC2)ccc2c3n(c(=NC(=O)c4cnc(N)nc4)nc12)CCN3
IC50 (second compound 0.00316 µM): 4.67 µM
IC50 (second compound 0.01 µM): 4 µM
IC50 (second compound 0.0316 µM): 2.56 µM
IC50 (second compound 0.1 µM): 1.64 µM
IC50 (second compound 0.316 µM): < 0.0316 µM
IC50 (second compound 1 µM): < 0.0316 µM
viability, T/C [1]: 87.4%
viability, T/C [2]: 92.8%
viability, T/C [3]: 92.9%
viability, T/C [4]: 97%
viability, T/C [5]: 64.3%
viability, T/C [6]: 22.1%
viability, T/C [7]: 93.1%
viability, T/C [8]: 99.6%
viability, T/C [9]: 100%
viability, T/C [10]: 103%
viability, T/C [11]: 57.2%
viability, T/C [12]: 21.4%
viability, T/C [13]: 96.8%
viability, T/C [14]: 102%
viability, T/C [15]: 93.6%
viability, T/C [16]: 94.4%
viability, T/C [17]: 40.1%
viability, T/C [18]: 23.7%
viability, T/C [19]: 98.8%
viability, T/C [20]: 84.4%
viability, T/C [21]: 80.3%
viability, T/C [22]: 55.7%
viability, T/C [23]: 39.6%
viability, T/C [24]: 18.5%
viability, T/C [25]: 38.3%
viability, T/C [26]: 37.1%
viability, T/C [27]: 33.3%
viability, T/C [28]: 30.3%
viability, T/C [29]: 28.2%
viability, T/C [30]: 17%
viability, T/C [31]: 24.8%
viability, T/C [32]: 21.8%
viability, T/C [33]: 22.1%
viability, T/C [34]: 20.9%
viability, T/C [35]: 20.7%
viability, T/C [36]: 14.1%

CCN1CCN(Cc2ccc(Nc3ncc(F)c(-c4cc(F)c5nc(C)n(C(C)C)c5c4)n3)nc2)CC1 + COc1c(OCCCN2CCOCC2)ccc2c3n(c(=NC(=O)c4cnc(N)nc4)nc12)CCN3
IC50 (second compound 0.00316 µM): > 1 µM
IC50 (second compound 0.01 µM): > 1 µM
IC50 (second compound 0.0316 µM): > 1 µM
IC50 (second compound 0.1 µM): 0.185 µM
IC50 (second compound 0.316 µM): < 0.00316 µM
IC50 (second compound 1 µM): < 0.00316 µM
viability, T/C (second compound 0.00316 µM, first compound 0.00316 µM): 80.7%
viability, T/C (second compound 0.00316 µM, first compound 0.01 µM): 104%
viability, T/C [1]: 100%
viability, T/C [2]: 97.3%
viability, T/C [3]: 128%
viability, T/C [4]: 90.8%
viability, T/C (second compound 0.01 µM, first compound 0.00316 µM): 89.5%
viability, T/C (second compound 0.01 µM, first compound 0.01 µM): 105%
viability, T/C [7]: 104%
viability, T/C [8]: 118%
viability, T/C [9]: 138%
viability, T/C [10]: 87.6%
viability, T/C (second compound 0.0316 µM, first compound 0.00316 µM): 108%
viability, T/C (second compound 0.0316 µM, first compound 0.01 µM): 109%
viability, T/C [13]: 103%
viability, T/C [14]: 106%
viability, T/C [15]: 112%
viability, T/C [16]: 55.9%
viability, T/C (second compound 0.1 µM, first compound 0.00316 µM): 87.8%
viability, T/C (second compound 0.1 µM, first compound 0.01 µM): 80.3%
viability, T/C [19]: 64.9%
viability, T/C [20]: 54.9%
viability, T/C [21]: 47.1%
viability, T/C [22]: 34.7%
viability, T/C (second compound 0.316 µM, first compound 0.00316 µM): 36.1%
viability, T/C (second compound 0.316 µM, first compound 0.01 µM): 33.8%
viability, T/C [25]: 33%
viability, T/C [26]: 40.7%
viability, T/C [27]: 33.4%
viability, T/C [28]: 32%
viability, T/C (second compound 1 µM, first compound 0.00316 µM): 22.3%
viability, T/C (second compound 1 µM, first compound 0.01 µM): 23.4%
viability, T/C [31]: 20.6%
viability, T/C [32]: 24.6%
viability, T/C [33]: 27.2%
viability, T/C [34]: 31.1%

Cn1ncc(Cl)c1-c1cc(C(=O)NC(CN)Cc2cccc(F)c2)sc1Cl (stereo not given) + COc1c(OCCCN2CCOCC2)ccc2c3n(c(=NC(=O)c4cnc(N)nc4)nc12)CCN3
IC50 (second compound 0.00316 µM): 2.98 µM
IC50 (second compound 0.01 µM): 2.96 µM
IC50 (second compound 0.0316 µM): 2.49 µM
IC50 (second compound 0.1 µM): 1.89 µM
IC50 (second compound 0.316 µM): < 0.0316 µM
IC50 (second compound 1 µM): < 0.0316 µM
viability, T/C [1]: 95.1%
viability, T/C [2]: 90.2%
viability, T/C [3]: 91.7%
viability, T/C [4]: 99.6%
viability, T/C [5]: 47.6%
viability, T/C [6]: 16.6%
viability, T/C [7]: 108%
viability, T/C [8]: 96.3%
viability, T/C [9]: 94.6%
viability, T/C [10]: 92.9%
viability, T/C [11]: 47.3%
viability, T/C [12]: 17.6%
viability, T/C [13]: 102%
viability, T/C [14]: 104%
viability, T/C [15]: 96.7%
viability, T/C [16]: 75.2%
viability, T/C [17]: 43.9%
viability, T/C [18]: 15.1%
viability, T/C [19]: 90.8%
viability, T/C [20]: 86.8%
viability, T/C [21]: 79.7%
viability, T/C [22]: 72.8%
viability, T/C [23]: 32.2%
viability, T/C [24]: 12.9%
viability, T/C [25]: 45%
viability, T/C [26]: 35%
viability, T/C [27]: 35.5%
viability, T/C [28]: 32%
viability, T/C [29]: 27.2%
viability, T/C [30]: 15.3%
viability, T/C [31]: 21.4%
viability, T/C [32]: 28.2%
viability, T/C [33]: 16.9%
viability, T/C [34]: 20.9%
viability, T/C [35]: 16.6%
viability, T/C [36]: 7.24%

Cn1nccc1Nc1nccc(-c2ccn(C(CO)c3ccc(Cl)c(F)c3)c(=O)c2)n1 (stereo not given) + COc1c(OCCCN2CCOCC2)ccc2c3n(c(=NC(=O)c4cnc(N)nc4)nc12)CCN3
IC50 (second compound 0.00316 µM): 3.28 µM
IC50 (second compound 0.01 µM): 1.11 µM
IC50 (second compound 0.0316 µM): 0.659 µM
IC50 (second compound 0.1 µM): 0.412 µM
IC50 (second compound 0.316 µM): < 0.0316 µM
IC50 (second compound 1 µM): < 0.0316 µM
viability, T/C [1]: 99.7%
viability, T/C [2]: 94.4%
viability, T/C [3]: 76.8%
viability, T/C [4]: 67.7%
viability, T/C [5]: 48.5%
viability, T/C [6]: 40.7%
viability, T/C [7]: 96.7%
viability, T/C [8]: 102%
viability, T/C [9]: 81.2%
viability, T/C [10]: 49.8%
viability, T/C [11]: 42.4%
viability, T/C [12]: 28.8%
viability, T/C [13]: 94.1%
viability, T/C [14]: 92.8%
viability, T/C [15]: 59.6%
viability, T/C [16]: 42.2%
viability, T/C [17]: 25.6%
viability, T/C [18]: 10.7%
viability, T/C [19]: 92.4%
viability, T/C [20]: 83.8%
viability, T/C [21]: 46.6%
viability, T/C [22]: 37.5%
viability, T/C [23]: 13.9%
viability, T/C [24]: 0.2%
viability, T/C [25]: 38%
viability, T/C [26]: 38.6%
viability, T/C [27]: 22.6%
viability, T/C [28]: 13.2%
viability, T/C [29]: 1.77%
viability, T/C [30]: 0.14%
viability, T/C [31]: 19.6%
viability, T/C [32]: 11.4%
viability, T/C [33]: 4.09%
viability, T/C [34]: 0.93%
viability, T/C [35]: 0.9%
viability, T/C [36]: 0.16%
